According to US4261977A, “Streptomycetal antibiotic” (Beecham Group Limited, priority 1975, dated 1981):
Where a name gives a salt, the structure may show the parent alone.

Legend:
[1] = system: Klebsiella aerogenes; assay: Activity by conventional hole in plate method on agar; type: cell-based; settings: yellow solid after cellulose chromatography; arbitrary units
Method: 300 ml. of 10% Pluronic L81 in soya-bean oil was added to prevent foaming. The fermentation was harvested after 48 hours and clarified by centrifugation. The clarified brew was arbitarily assigned an activity of 340 units/ml when assayed by the conventional hole in plate method on agar seeded with Klebsiella aerogenes.

[2] = system: gram-positive and gram-negative organisms; assay: Antibacterial activity determined by the microtiter method (general statement); type: cell-based; settings: substantially pure di-sodium salt, certain gram-positive and gram-negative organisms
[3] = system: β-lactamase producing strains of Staphylococcus aureus and Klebsiella aerogenes; assay: Synergy with β-lactam antibiotics (general statement); type: cell-based; settings: substantially pure di-sodium salt; with ampicillin, amoxycillin and the like; certain bacteria
[4] = system: Proteus morganii I580; assay: Antibacterial activity, microtitre method (Table 2); type: cell-based; settings: heavy inoculum
Method: (§1) The antibacterial activity of the material produced as above was determined by the microtitre method using the overnight inoculum of the test organism at 0.2% concentration. The synergistic activity of the di-sodium salt of MM 17880 in combination with ampicillin and with cephaloridine against Klebsiella aerogenes and Staphylococcus aureus Russell are shown in Table 3.
(§2) Microtitre heavy inoculum

[5] = system: Streptococcus pyogenes CN10; assay: as above; type: cell-based; settings: heavy inoculum
Method: as §1, §2

[6] = system: Streptococcus faecalis I; assay: as above; type: cell-based; settings: heavy inoculum
Method: as §1, §2

[7] = Stability of salts and unsalted acid; type: physicochemical; settings: salts compared with unsalted acid; in solution

Structure (SMILES): CC(=O)NCCSC1=C(C(=O)O)N2C(=O)C(C(C)OS(=O)(=O)O)C2C1 (stereo not shown) [di-sodium salt of MM 17880]
- activity [1]: 16,000 units/mg
- antibacterial activity [2]: good level of antibacterial activity
- synergy with β-lactam antibiotics [3]: able to synergyse the anti-bacterial activity of β-lactam antibiotics

Structure (SMILES): CC(=O)NCCSC1=C(C(=O)O)N2C(=O)C(C(C)OS(=O)(=O)O)C2C1 (stereo not shown) [MM 17880]
- MIC [4]: 1.6 µg/mL
- MIC [5]: < 0.04 µg/mL
- MIC [6]: 6.2 µg/mL
- stability [7]: tends to decompose in solution
